Target: T1, H+,K+-ATPase
T1 construct: from tissue
Assay: Determination of H+,K+-ATPase activity
Format: biochemical
Conditions: membrane vesicles, 15 min at +37° C., pH 7.4, 10 mM KCl, 2 mM ATP; release of inorganic phosphate
Method: Determination of H^+,K^+-ATPase Activity
Membrane vesicles (2.5 to 5 μg) were incubated for 15 min at +37° C. in 18 mM Pipes/Tris buffer pH 7.4 containing 2 mM MgCl2, 10 mM KCl and 2 mM ATP. The ATPase activity was estimated as release of inorganic phosphate from ATP, as described by LeBel et al. (1978) Anal. Biochem. 85, 86-89.

T1 sequence (P20648 whole entry): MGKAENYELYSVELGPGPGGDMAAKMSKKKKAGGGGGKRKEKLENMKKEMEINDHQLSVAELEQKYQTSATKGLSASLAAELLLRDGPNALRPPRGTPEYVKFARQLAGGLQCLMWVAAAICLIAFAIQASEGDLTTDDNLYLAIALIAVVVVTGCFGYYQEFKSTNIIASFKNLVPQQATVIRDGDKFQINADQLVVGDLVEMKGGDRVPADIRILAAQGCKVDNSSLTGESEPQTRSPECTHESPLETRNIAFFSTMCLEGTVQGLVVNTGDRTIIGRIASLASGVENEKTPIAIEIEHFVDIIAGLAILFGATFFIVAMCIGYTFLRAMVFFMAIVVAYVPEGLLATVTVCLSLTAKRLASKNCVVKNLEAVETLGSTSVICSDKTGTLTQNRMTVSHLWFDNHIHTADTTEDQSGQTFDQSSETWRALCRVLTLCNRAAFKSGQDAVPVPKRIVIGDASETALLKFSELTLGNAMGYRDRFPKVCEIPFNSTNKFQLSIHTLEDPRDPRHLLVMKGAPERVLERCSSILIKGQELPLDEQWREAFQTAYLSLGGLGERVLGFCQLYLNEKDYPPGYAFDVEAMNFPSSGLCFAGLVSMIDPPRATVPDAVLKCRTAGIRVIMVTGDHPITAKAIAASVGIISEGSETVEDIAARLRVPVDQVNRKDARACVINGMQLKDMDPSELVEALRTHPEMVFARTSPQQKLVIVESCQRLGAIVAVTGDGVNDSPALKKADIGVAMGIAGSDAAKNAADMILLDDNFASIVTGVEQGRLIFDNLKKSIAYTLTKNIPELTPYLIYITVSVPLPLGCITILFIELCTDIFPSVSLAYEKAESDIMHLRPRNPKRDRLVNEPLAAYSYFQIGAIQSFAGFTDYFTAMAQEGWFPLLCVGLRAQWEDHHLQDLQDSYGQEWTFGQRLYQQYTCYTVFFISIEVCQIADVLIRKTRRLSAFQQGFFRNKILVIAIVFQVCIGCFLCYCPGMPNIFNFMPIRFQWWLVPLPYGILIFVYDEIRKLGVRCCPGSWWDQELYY
T1 sequence (P51164 whole entry partner): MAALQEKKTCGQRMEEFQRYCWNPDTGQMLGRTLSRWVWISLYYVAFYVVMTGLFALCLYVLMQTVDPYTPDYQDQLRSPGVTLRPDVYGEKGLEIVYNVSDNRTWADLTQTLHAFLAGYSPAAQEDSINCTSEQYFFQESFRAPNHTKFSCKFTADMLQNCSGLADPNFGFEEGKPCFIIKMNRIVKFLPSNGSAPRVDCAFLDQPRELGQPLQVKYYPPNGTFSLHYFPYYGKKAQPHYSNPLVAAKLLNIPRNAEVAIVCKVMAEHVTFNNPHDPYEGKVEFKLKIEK

SMILES | IC50 [µM]
Cc1cccc(C)c1CNc1nccn2c(C)c(C)nc12 [Example 1, 2,3-dimethyl-8-(2,6-dimethylbenzylamino)imidazo [1,2-a]pyrazine] | 0.16
Cc1cccc(C)c1COc1nccn2c(C)c(C)nc12 [Example 2, 2,3-dimethyl-8-(2,6-dimethylbenzyloxy)imidazo[1,2-a]pyrazine] | 2.78

— US6518270B1, “Heterocyclic compounds for inhibition of gastric acid secretion, processes for their preparation and pharmaceutical compositions thereof” (AstraZeneca AB, priority 1997, dated 2003)
